# According to patent US12673921B2, “Substituted fluorine-containing imidazole salt compound, preparation method therefor, pharmaceutical composition thereof and use thereof” (XIAMEN VIVOHEALTHS TECHNOLOGY CO., LTD., priority 2019, dated 2026):
# System: AMPK
# Assay: AMPK activity assay at cell level (western blot of p-AMPKα and p-ACC in MEFs)
# Type: cell-based, mouse
# Conditions: MEF cells, compound 10 nM, 2 h; multiple of the ratio relative to positive control AICAR (3 mM); band brightness by Image J
# Procedure: The ability of compounds to activate AMPK in mouse embryonic fibroblasts (MEFs) was determined, which could be specifically carried out by detecting the phosphorylation level (p-AMPKα) of threonine at the 172nd position of AMPK and the phosphorylation level (p-ACC) of serine at the 79th position of the susbtrate ACC1/ACC2 of AMPK (FIG. 1 and Table I) by western blot.
# The specific method was as follows: • (1) MEFs with loxP insertion sequences or of wild-type were plated in a 6-well plate and cultured in DMEM containing 10% serum. If a gene needed to be knocked out at this time, when the density of the corresponding MEFs with loxP insertion sequences reached about 30%, an adenovirus capable of expressing cre should be added to the culture well followed by further culture for more than 24 h; • (2) When the cell density was close to 90%, the cells were provided with fresh DMEM, at the same time, a compound (final concentration 10 nM) was added to the cells, followed by culture for 2 h, with an equal volume of DMSO as the negative control, and the cells treated with the addition of AICAR (3 mM) as the positive control; • (3) After sucking up the culture solution, the cells were lysed with 200 μL of a cell lysate (its formulation was given below), then the cells were scraped from the culture dish, ultrasonicated, and subjected to low temperature centrifugation at 20000 g for 10 min; • (4) The supernatant and an equal volume of 2*SDS solution (its formulation was given below) were mixed, and subjected to SDS-PAGE in a concentration of 8%, then the protein was transferred to PVDF membrane; each PVDF membrane was blocked with 25 mL of skim milk for 1 h, and then rinsed with TBST buffer (its formulation was given below) 3 times for 10 min each time; • (5) AMPKα subunit primary antibody (Cell Signaling Technology, #2532), primary antibody of phosphothreonine at the 172nd position of AMPK (Cell Signaling Technology, #2535), ACC primary antibody (Cell Signaling Technology, #3662), or primary antibody of phosphoserine at the 79th position of ACC (Cell Signaling Technology, #3661) was diluted in a ratio of 1:1000 with a primary antibody dilution (its formulation was given below), reacted with the PVDF membrane at room temperature for 12 h, and then rinsed 3 times with TBST buffer; • (6) A 1:1000 dilution of HRP-conjugated goat anti-rabbit secondary antibody (Jackson ImmunoResearch, 111-035-003) was added, reacted at room temperature for 1 h, and then rinsed 3 times with TBST buffer; • (7) The PVDF membrane was dried, reacted in an ECL mixture (WesternBright ECL HRP substrate, Advansta) and subjected to exposure with medical X-ray, developed, finally rinsed, dried, and then scanned to obtain data related to AMPK activation.
# The formulations of reagents used were: • Cell lysate: 20 mM Tris-base, pH 7.5, 150 mM NaCl, 1 mM EDTA, 1 mM EGTA, 2.5 mM Sodium pyrophosphate, 1 mM β-glycerolphosphate, 1% Triton X-100 (v/v); • 2*SDS solution: 20% Glycerol (v/v), 4% SDS (m/v), 10% β-mecaptoethanol (v/v), 0.01% Bromophenol blue (m/v); • TBST buffer: 4.84% Tris-base (m/v), 8% NaCl (m/v), 0.1% Tween-20 (v/v); • Primary antibody dilution: TBST buffer containing 5% BSA (v/v).
Compound,"Degree of AMPK activation, p-ACC/ACC","Degree of AMPK activation, p-AMPKα/AMPK"
Br.Cc1n(CCCCCCCCCCCCCCCCF)cc[n+]1Cc1c(Cl)cccc1Cl [IA-2],0.73,1.00
Cc1n(CCCCCCCCCCCCCCCCF)cc[n+]1Cc1c(Cl)cccc1Cl.[I-] [IA-3],0.83,0.69
FC(F)(F)C(F)(F)C(F)(F)CCCCCCCCCCCn1cc[n+](Cc2c(Cl)cccc2Cl)c1.[Cl-] [IB-1],0.71,0.99
Fc1cccc(Cl)c1C[n+]1ccn(CCCCCCCCCCCC(F)(F)C(F)(F)C(F)(F)F)c1.[Cl-] [IB-2],0.82,1.45
COc1ccc(F)cc1C[n+]1ccn(CCCCCCCCCCCC(F)(F)C(F)(F)C(F)(F)F)c1.[Br-] [IB-3],0.64,1.70
Cc1n(CCCCCCCCCCCC(F)(F)C(F)(F)C(F)(F)F)cc[n+]1Cc1c(F)cccc1Cl.[Cl-] [IB-5],0.70,1.85
CC(C)c1n(CCCCCCCCCCCC(F)(F)C(F)(F)C(F)(F)F)cc[n+]1Cc1c(Cl)cccc1Cl.[Cl-] [IB-7],0.87,1.93
CC(C)c1n(CCCCCCCCCCCC(F)(F)C(F)(F)C(F)(F)F)cc[n+]1Cc1c(F)cccc1Cl.[Cl-] [IB-8],0.90,1.23
COc1ccc(F)cc1C[n+]1ccn(CCCCCCCCCCCC(F)(F)C(F)(F)C(F)(F)F)c1C(C)C.[Br-] [IB-9],0.27,1.07
Cl.FC(F)(F)C(F)(F)C(F)(F)CCCCCCCCCCCn1cc[n+](Cc2c(Cl)cccc2Cl)c1C1CC1 [IB-10],0.35,1.94
Fc1cccc(Cl)c1C[n+]1ccn(CCCCCCCCCCCC(F)(F)C(F)(F)C(F)(F)F)c1C1CC1.[Cl-] [IB-11],0.41,1.11
Br.COc1ccc(F)cc1C[n+]1ccn(CCCCCCCCCCCC(F)(F)C(F)(F)C(F)(F)F)c1C1CC1 [IB-12],0.50,1.18
Cl.FC(F)(F)C(F)(F)C(F)(F)C(F)(F)CCCCCCCCCCCn1cc[n+](Cc2c(Cl)cccc2Cl)c1 [IB-13],0.57,1.31
Cl.Fc1cccc(Cl)c1C[n+]1ccn(CCCCCCCCCCCC(F)(F)C(F)(F)C(F)(F)C(F)(F)F)c1 [IB-14],0.50,1.57
Cc1n(CCCCCCCCCCCC(F)(F)C(F)(F)C(F)(F)C(F)(F)F)cc[n+]1Cc1c(F)cccc1Cl.[Cl-] [IB-17],0.72,1.42
Cc1n(CCCCCCCCCCCC(F)(F)C(F)(F)C(F)(F)C(F)(F)F)cc[n+]1Cc1c(Cl)cccc1Cl.[Br-] [IB-18],0.65,1.45
COc1ccc(F)cc1C[n+]1ccn(CCCCCCCCCCCC(F)(F)C(F)(F)C(F)(F)C(F)(F)F)c1C.[Br-] [IB-20],0.82,1.22

Compound,"Degree of AMPK activation, p-ACC/ACC","Degree of AMPK activation, p-AMPKα/AMPK"
Cc1n(CCCCCCCCCCCC(F)(F)C(F)(F)C(F)(F)C(F)(F)F)cc[n+]1Cc1c(Cl)cccc1Cl.[I-] [IB-21],1.73,0.35
Cc1n(CCCCCCCCCCCC(F)(F)C(F)(F)C(F)(F)C(F)(F)F)cc[n+]1Cc1c(F)cccc1Cl.[I-] [IB-22],1.08,0.44
COc1ccc(F)cc1C[n+]1ccn(CCCCCCCCCCCC(F)(F)C(F)(F)C(F)(F)C(F)(F)F)c1C.[I-] [IB-23],1.50,0.49
CC(C)c1n(CCCCCCCCCCCC(F)(F)C(F)(F)C(F)(F)C(F)(F)F)cc[n+]1Cc1c(Cl)cccc1Cl.[Cl-] [IB-24],1.60,0.64
CC(C)c1n(CCCCCCCCCCCC(F)(F)C(F)(F)C(F)(F)C(F)(F)F)cc[n+]1Cc1c(F)cccc1Cl.[Cl-] [IB-25],1.10,0.58
COc1ccc(F)cc1C[n+]1ccn(CCCCCCCCCCCC(F)(F)C(F)(F)C(F)(F)C(F)(F)F)c1C(C)C.[Br-] [IB-26],1.04,0.94
FC(F)(F)C(F)(F)C(F)(F)C(F)(F)CCCCCCCCCCCn1cc[n+](Cc2c(Cl)cccc2Cl)c1C1CC1.[Cl-] [IB-27],1.06,0.95
COc1ccc(F)cc1C[n+]1ccn(CCCCCCCCCCCC(F)(F)C(F)(F)C(F)(F)C(F)(F)F)c1C1CC1.[Br-] [IB-29],0.81,0.76
Cc1n(CCCCCCCCCCCC(F)(F)C(F)(F)C(F)(F)C(F)(F)C(F)(F)F)cc[n+]1Cc1c(Cl)cccc1Cl.[Br-] [IB-35],1.15,1.02
Cc1n(CCCCCCCCCCCC(F)(F)C(F)(F)C(F)(F)C(F)(F)C(F)(F)F)cc[n+]1Cc1c(F)cccc1Cl.[I-] [IB-39],1.51,1.50
COc1ccc(F)cc1C[n+]1ccn(CCCCCCCCCCCC(F)(F)C(F)(F)C(F)(F)C(F)(F)C(F)(F)F)c1C.[I-] [IB-40],1.65,1.06
CC(C)c1n(CCCCCCCCCCCC(F)(F)C(F)(F)C(F)(F)C(F)(F)C(F)(F)F)cc[n+]1Cc1c(F)cccc1Cl.[Cl-] [IB-42],1.50,1.03
Fc1cccc(Cl)c1C[n+]1ccn(CCCCCCCCCCCC(F)(F)C(F)(F)C(F)(F)C(F)(F)C(F)(F)F)c1C1CC1.[Cl-] [IB-45],2.22,0.54
COc1ccc(F)cc1C[n+]1ccn(CCCCCCCCCCCC(F)(F)C(F)(F)C(F)(F)C(F)(F)C(F)(F)F)c1C1CC1.[Br-] [IB-46],1.73,0.57
COc1ccc(F)cc1C[n+]1ccn(CCCCCCCCCCCC(F)(F)C(F)(F)C(F)(F)C(F)(F)C(F)(F)C(F)(F)F)c1C.[Br-] [IB-52],0.98,0.83
CC(C)c1n(CCCCCCCCCCCC(F)(F)C(F)(F)C(F)(F)C(F)(F)C(F)(F)C(F)(F)F)cc[n+]1Cc1c(Cl)cccc1Cl.Cl [IB-53],1.23,0.76
Br.COc1ccc(F)cc1C[n+]1ccn(CCCCCCCCCCCC(F)(F)C(F)(F)C(F)(F)C(F)(F)C(F)(F)C(F)(F)F)c1C(C)C [IB-55],1.98,0.87
